Experimental data published in publication PMC9021288 (Nature Communications, 2022).
Several values for one entry are separate records, joined by “and”; a condition that tells them apart may be missing. Equal values may be shown once. Read-outs that look alike come from different tables or passages of the source.

Columns and labels:
[1] = Blood concentration and PK in infected NSG mice after single oral dose; assay type: in vivo, mouse
Experimental: The effect of pantothenamides on P. falciparum Pf3D7^0087/N9 [66] in vivo was assessed in female NSG mice (NODscidIL2Rγ^null) at the Swiss Tropical and Public Health Institute (Basel, Switzerland) as described previously (Supplementary Table 30)[15],[67]. Briefly, humanized mice were engrafted daily with human erythrocyte suspensions from days -11 to day 6. After 11 days (day 0), mice were injected intravenously with 3×10^7 infected RBCs in a volume of 0.1 ml. On day 4, groups of n = 2 mice were treated with a single dose pantothenamides or chloroquine (50 mg/kg) by oral gavage. The hematocrit of all dosed mice and an untreated control group (n = 4 mice) was determined by fluorescence-activated cell sorting and parasitemia was analyzed by microscopy on >10,000 RBCs as described before. Samples to quantify compound metabolites were collected and prepared at different time points (1, 2, 4, 6, and 24 h after treatment) for each mouse by mixing 20 µl of whole blood with 20 µl of Milli-Q, followed by immediate freezing of samples on dry ice. […] Serial dilutions were prepared in the same solvent to concentrations 50 times higher than the corresponding CAL and QC concentrations. The concentrations were calculated under consideration of purity and salt factor. The spiking of the CAL and QC sample were performed at room temperature. The eight calibration levels were 5.00, 10.0, 50.0, 100, 500, 1000, 3750, and 5000 ng/mL and three QC levels 15.0, 100, and 3750 ng/mL were analyzed in duplicate, together with the study samples.
For the sample precipitation, to an aliquot of 10 µL mouse blood/water (1/1) study sample, 20 µL of acetonitrile containing the internal standard MMV1542001 at a concentration of 100 ng/mL was added. After vortex mixing, the samples were centrifuged for 10 min at 50,000 g at 8 °C. Subsequently, an aliquot of 20 µL of the supernatant was transferred to an autosampler vial and an aliquot of 5 µL was injected onto the LC-MS/MS system.
The samples were handled by an autosampler CTC PAL (CTC Analytics AG, Zwingen, Switzerland) set at 8 °C. The chromatography column used was a YMC Hydrosphere C18, 2.1 × 33 mm, 3 µm (YMC Co. Ltd., Kyoto, Japan), kept at room temperature. The aqueous mobile phase consisted of water containing 0.1 % formic acid, whereas the organic mobile phase consisted of acetonitrile containing 0.1 % formic acid, pumped by HPLC pump from Agilent 1200 series (Agilent Technologies Inc, Santa Clara, CA, USA). The HPLC gradient was as follows: 95% phase A, 5% phase B for 0.20 min, followed by transition to 5% phase A, 95% phase B in 1 min, 2 min at these concentrations, and a subsequent increase to 95% phase A, 5% phase B in 0.05 min which is kept for the remaining 0.75 min.
The detection of MMV693183 was performed using a TSQ Access mass spectrometer (Thermo Fisher Scientific, San Jose, CA, USA) by selected reaction monitoring. The ion source was heated electrospray ionization, using a negative polarity. Following parameters were used: Voltage 2500 [V], Vaporizer temperature 350 [°C], Sheath gas 60 [au], Auxiliary gas 5 [au], Capillary temperature 350 [°C] and Collision gas pressure 1.0 [mTorr]. […] The transition used for the internal standard was: parent ion 325.030 m/z—daughter ion 195.000 m/z.
The concentration of the analyte was calculated using the internal standardization method. The area ratio of analyte to internal standard against the concentration of calibration samples was used for quantification. The acquisition and processing of data were performed using LCquan 2.5.6 and Xcalibur 2.0.7. Microsoft Office Excel 2007 Prof was used for calculations and statistical evaluation of data. […] The Lower Limit of Quantification was 5.00 ng/mL in […], whereas The Upper Limit of Quantification was 5000 ng/mL in mouse blood/water (1/1).

[2] = tested on: P. falciparum NF54 asexual blood-stage parasites; test: 72-h asexual blood-stage replication assay (SYBR Green); assay type: cell-based, Plasmodium falciparum; parameters: key to asexual blood stages growth, dose-response: % growth; DMSO control = 100%, DHA/epoxomicin-treated = no growth
Experimental: Replication assays were performed using a SYBR Green method as described previously. Briefly, asynchronous parasites were diluted to 0.83% parasitemia, 3% hematocrit in 30 µl medium, and added to 30 µl of diluted compounds in medium (0.1% DMSO final concentration) in black 384-wells plates. After a 72-h incubation, 30 µl of SYBR Green diluted in lysis buffer was added according to the manufacturer’s protocol (Life Technologies). Fluorescence intensity was measured on a BioTek Synergy 2 Plate Reader after 1-h incubation and was normalized to a DMSO control (100% growth) and DHA- or epoxomicin-treatment (no growth). […] Parasite survival was assessed by flow cytometry on an Accuri C6 (BD Biosciences) with BD C6 Plus software using SYBR Green and MitoTracker Deep Red FM (Life Technologies) as nuclear stain and vital dye, respectively, and data were analyzed using FlowJo (10.5.0). […] Luminescence was measured after 72 h using the Renilla-Glo(R) Luciferase Assay System (Promega E2750) and the GlomAX® Discover Multimode Microplate Reader (Promega). The luminescence values were normalized to DMSO vehicle (100% growth) and 200 nM chloroquine-treated (no growth) samples as controls.
Dose-response assays were analyzed by a nonlinear regression using a four-parameter model and the least squares method to find the best fit. One-way Analysis of variance (ANOVA) was performed using the Bonferroni’s Multiple Comparison Test. For the majority of experiments, 2-4 biological replicates were performed. Typically, 2 replicates were performed for screening activities, and a minimum of 3 replicates are performed for other experiments unless stated otherwise.

[3] = asexual blood stages NF54 parasites, read-out: IC50
[4] = per replicate experiment, read-out: IC50, asexual blood stages

Row | SMILES | AUC0-24h ([1]; 50 mg/kg p.o.) | Cmax ([1]; 50 mg/kg p.o.) | T1/2 ([1]; 50 mg/kg p.o.) | Tmax ([1]; 50 mg/kg p.o.) | concentration in blood ([1]; 1 h post treatment, per mouse) | concentration in blood ([1]; 2 h post treatment, per mouse) | concentration in blood ([1]; 4 h post treatment, per mouse) | concentration in blood ([1]; 6 h post treatment, per mouse) | concentration in blood ([1]; 24 h post treatment, per mouse) | asexual blood stages growth, dose-response ([2]; Log concentration (M) -7.5) | asexual blood stages growth, dose-response ([2]; Log concentration (M) -8) | asexual blood stages growth, dose-response ([2]; Log concentration (M) -8.5) | asexual blood stages growth, dose-response ([2]; Log concentration (M) -9) | asexual blood stages growth, dose-response ([2]; Log concentration (M) -9.5) | asexual blood stages growth, dose-response ([2]; Log concentration (M) -10) | IC50 [2, 3] | IC50 [2, 4] | other results
1 | C[C@@H](CNC(=O)[C@H](O)C(C)(C)CO)NC(=O)c1cccc(C#N)c1 (stereo in doubt) [MMV884962] | 8650 ng·h/mL | 3920 ng/mL | 3.32 h | 1.00 h | 3920 ng/mL | 1180 ng/mL and 1170 ng/mL | 468 ng/mL and 370 ng/mL | 222 ng/mL and 193 ng/mL | 13 ng/mL and 10 ng/mL | 11.25 and 6.6 | 55.2 and 32.3 | 80.1 and 73.8 | 84.85 and 73.05 | 95.6 and 92.6 | 93.15 and 89.75 | 7.4 nM | 12.1 nM and 7.41 nM | asexual blood stages growth, dose-response ([2]; Log concentration (M) -7): 1.15 and 1.45
2 | C[C@@H](CNC(=O)[C@H](O)C(C)(C)CO)NC(=O)c1cc(F)c(F)cc1F [MMV693183] | 33700 ng·h/mL | 12900 ng/mL | 2.49 h | 1.50 h | 6960 ng/mL and 16200 ng/mL | 9660 ng/mL and 7300 ng/mL | 2360 ng/mL and 1170 ng/mL | 802 ng/mL and 376 ng/mL | 10 ng/mL |  |  | 38.5 and 30.4 and 47.25 and 30.7 | 74.05 and 74.55 and 77.05 and 67.5 | 92.6 and 74.65 and 93.65 and 69.75 | 93.45 and 77.05 and 101.75 and 92 | 2.8 nM | 2.37 nM and 2.81 nM and 2.66 nM and 2.15 nM | in vitro-determined IC99 [2]: 36.1 nM
3 | C[C@@H](CNC(=O)[C@H](O)C(C)(C)CO)NC(=O)c1cccc(F)c1 (stereo in doubt) [MMV1542001] | 11800 ng·h/mL | 5150 ng/mL | 2.80 h | 1.00 h | 4480 ng/mL and 5820 ng/mL | 1520 ng/mL and 1620 ng/mL | 492 ng/mL and 574 ng/mL | 314 ng/mL and 340 ng/mL | 10 ng/mL |  |  | 33 and 19.45 | 66.7 and 78.5 | 89.15 and 95.45 | 79.7 and 90.9 | 2.4 nM | 2.45 nM and 1.87 nM | 
4 | C[C@@H](CNC(=O)[C@H](O)C(C)(C)CO)NC(=O)c1cc(C#N)ccc1F [MMV693182] |  |  |  |  | 4180 ng/mL | 2200 ng/mL and 1000 ng/mL | 866 ng/mL | 266 ng/mL and 912 ng/mL | 10 ng/mL and 22.4 ng/mL | 14.55 and 11.25 | 38 and 38.5 | 59.8 and 65.55 | 98.45 and 83.35 | 91.35 and 91.95 | 80.55 and 97.8 |  | 6.21 nM | concentration at 1 h ([1]; female, NSG (NODscidIL2Rγnull), mouse, whole blood, oral, 50 mg/kg, 1 h post treatment, per mouse): 6360 ng/mL; concentration at 4 h ([1]; female, NSG (NODscidIL2Rγnull), mouse, whole blood, oral, 50 mg/kg, 4 h post treatment, per mouse): 552 ng/mL; half-life ([1]; female, NSG (NODscidIL2Rγnull), mouse, whole blood, po, 50 mg/kg p.o.): 3.19 h; AUC(0 - t) ([1]; female, NSG (NODscidIL2Rγnull), mouse, whole blood, po, 50 mg/kg p.o., read-out: AUC0-24h): 15100 ng·h/mL; Cmax ([1]; female, NSG (NODscidIL2Rγnull), mouse, whole blood, po, 50 mg/kg p.o., read-out: Cmax): 5270 ng/mL; Tmax ([1]; female, NSG (NODscidIL2Rγnull), mouse, whole blood, po, 50 mg/kg p.o., read-out: Tmax): 1 h; IC50 ([2]; Plasmodium falciparum, NF54, 72 h, 72-h asexual growth assay, range of independent experiments, read-out: Asexual blood stage IC50 range (N)): 6.2 to 7.5 nM; IC50 ([2]; Plasmodium falciparum, NF54, asexual blood stages NF54 parasites): 7.5 nM; IC50 ([2]; Plasmodium falciparum, NF54, per replicate experiment, read-out: IC50, asexual blood stages): 7.54 nM
5 | CC(CNC(=O)C(O)C(C)(C)CO)NC(=O)CCc1ccccc1F (stereo in doubt) [MMV689258] | 6730 ng·h/mL | 3780 ng/mL | 3.26 h | 1.00 h | 3100 ng/mL and 4460 ng/mL | 1090 ng/mL and 698 ng/mL | 368 ng/mL and 236 ng/mL | 91.8 ng/mL and 110 ng/mL | 10 ng/mL |  |  |  |  |  |  | 7 nM |  | 
6 | CC(C)(CO)[C@@H](O)C(=O)NCCNC(=O)c1cc(C#N)ccc1F [MMV976394] | 10800 ng·h/mL | 5810 ng/mL | 2.95 h | 1.00 h | 6840 ng/mL and 4780 ng/mL | 1230 ng/mL and 1500 ng/mL | 450 ng/mL and 356 ng/mL | 204 ng/mL and 214 ng/mL | 10 ng/mL |  |  | 87.25 and 70.5 | 94.8 and 82.75 | 101.5 and 89.75 | 97.1 and 96.9 |  | 25 nM and 6.26 nM | asexual blood stages growth, dose-response ([2]; Log concentration (M) -6): 3.4 and 4.05; asexual blood stages growth, dose-response ([2]; Log concentration (M) -6.5): 2.2 and 3.95
